Test results taken from paper PMC9227536, “Prediction of Pharmacokinetics of IDP-73152 in Humans Using Physiologically-Based Pharmacokinetics” (Pharmaceutics, 2022).

Tests used:
[1] = Blood stability in rat blood (CLblood); type: in vitro ADME
Procedure: In contrast, however, the compound was unstable in the rat blood and plasma. […] The blood containing IDP-73152 was incubated at 37 °C in a water bath, and aliquots (50 μL) were collected from the mixture at 0, 10, 30, 60, 120, and 240 min. The samples were centrifuged for 5 min at 10,000× g/4 °C, and the plasma was collected/stored at -80 °C until analysis. For the estimation of the clearance in the blood (CLblood), in rats, the disappearance of IDP-73152 in the blood was assumed to be mediated by first-order kinetics. […]×total volume of the blood×BP ) to calculate CLblood.

[2] = PBPK model prediction, rats
Text: In this study, the PBPK model involving ten tissues (i.e., adipose tissue, brain, heart, kidney, liver, lung, muscle, skin, spleen, and testis (Figure 2; see Appendix A for detailed mathematical descriptions)) was considered to be applicable for the description of IDP-73152 PK in rats, mice, dogs, and humans. Physiological variables were obtained from the literature; they are summarized in Supplementary Table S1.
In addition, from metabolic stability studies, it was evident that IDP-73152 was metabolically unstable in the incubations containing liver microsomes (from all species)/hepatocytes (from rats) and in the rat plasma. […] Accordingly, during model development, we initially assumed that IDP-73152 was entirely eliminated by the metabolism in the liver (namely, CLh) and in the blood (namely, CLblood) in rats: For other species (i.e., mice, dogs, and humans), the elimination was assumed to be primarily mediated by metabolism in the liver. From the results of in vitro metabolic stability studies, the hepatic clearance (CLh) in rats was estimated under the assumption that the well-stirred liver model was adequate for IDP-73152 [29]:(9) CLh=QLI×BP×fu,p×CLu,int,H/QLI×BP+fu,p×CLu,int,H, where QLI, and fu,p represent the liver blood flow and the unbound fraction of IDP-73152 in the plasma, respectively.
For the estimation of the volume of the distribution of IDP-73512 in rats, the steady-state volume of distribution (Vss) was calculated using the following equation [30]:(10) Vss=VP+Vrbc×EP+∑VT,i×KP,ss,i, where Vp, Vrbc, and VT,i are the volumes of plasma, red blood cells, and tissues, respectively. The erythrocyte-to-plasma partition coefficient (EP), is calculated by EP=1+(BP−1)/Hematocrit . The KP,ss for each tissue obtained from Equation (8) was applied for Equation (10). For the case of non-eliminating organs, the KP,ss was regarded as the tissue-to-plasma partition coefficient (KP) in PBPK equations (Appendix A). For the case of the liver—i.e., the eliminating organ—the KP,ss (KP,ss,LI) had to be corrected to account for the equilibrium being altered by the elimination. Thus, a PBPK-operative KP for liver (KP,LI) was calculated using the following equation [31]:(11) KP,LI=KP,ss,LI/(1−ER), where ER is the hepatic extraction ratio of the compound (i.e., CLh/(QLI·BP)). In this study, a compartmental absorption and transit (CAT) model consisting of stomach and five intestinal segments was considered for the description of the intestinal absorption kinetics of IDP-73152 in animals and humans. We assumed that the initial compartment denoted the stomach (Equation (12)), and the subsequent three compartments represented the small intestine and two additional compartments for the large intestine (i.e., a total of six compartments, with absorption occurring in the five intestinal compartments) (Equation (13)). […]
For the intestine, viz. i = 1~5:(13) dMi/dt=Kt,i−1×Mi−1−(Kt,i+ka,i)×Mi, where Ms is the amount of drug in the stomach; Mi is the amount of drug in the i-th intestinal segment; Ks, Kt,i, and ka,i are the rate constants of gastric emptying, intestinal transit, and the segmental absorption rate, respectively. […] The absorption rate constant in the intestinal segments in humans, ka,i,human, was assumed to be identical along the segments and calculated as follows: first, Peff was empirically estimated from the Caco-2 cell permeability (Papp):(14) LogPeff=0.4926×LogPapp−0.1454 […]

Compound: CC(C)(C)[C@H](NC(=O)[C@H](CC1CCCC1)CN(O)C=O)C(=O)N1CCC(NCc2cc(F)c(F)cc2F)CC1 [IDP-73152]
- CLblood ([1]; fresh whole blood from rats, 1 μM, 37 °C): 0.0430 ± 0.023 L/h/kg
- contribution of CLblood to the CLp ([1]; rats): 2.15%
- AUC ratio (Predicted AUCinf/Observed AUCinf) ([2]; intravenous 2.5 mg/kg): 1.09
- AUC ratio (Predicted AUCinf/Observed AUCinf) ([2]; intravenous 10 mg/kg): 1.14
- Cmax ratio without the scaling (SF) ([2]; oral): 2.36
- AUC ratio (Predicted AUCinf/Observed AUCinf) ([2]; oral 20 mg/kg): 1.03
- Cmax ratio (Predicted Cmax/Observed Cmax) ([2]; oral 20 mg/kg): 1.02
